In patent US9782393B2, “Pharmaceutical compositions and methods for treating cancer and biomarkers for drug screening” (NATIONAL DEFENSE MEDICAL CENTER, priority 2013, dated 2017):
Where two headings read alike, the source gives them in different places.

Columns and labels:
ACHN cells [1] = experiment: SRB assay, growth inhibition of ACHN cells; type: cell-based, Human; conditions: 5 μM sorafenib, 10 μM GW5074, single or combined, 24 hours
Protocol: Human renal carcinoma (ACHN) cells were cultured in Eagle MEM (Minimum Essential Medium) with 10% FBS (Fetal Bovine Serum) and 1% penicillin/streptomycin. Sulforhodamine B (SRB) is a negative […] with a sulfonic acid group and binds to basic amino acids of intracellular proteins in weak acidic conditions. The SRB […] was extracted from cells using weak alkaline solution and then subjected to absorbance measurement. The amount of intracellular proteins, which is an indicator for cell survival, can be calculated from the amount of SRB. ACHN or A498 cells were treated singularly with 2.5 μM sorafenib, 5 μM sorafenib, 10 μM sorafenib, GW5074, L779450 or PLX4720 for 24, 48 and 72 hours, followed by SRB assay to assess cell survival. Alternatively, ACHN cells were pre-treated with 10 μM GW5074, 10 μM L779450 or 10 μM PLX4720 for 30 minutes prior to 5 μM sorafenib treatment for additional 24, 48 and 72 hours, followed by SRB assay to assess growth inhibition.

ACHN cells [2] = experiment: Annexin V-FITC / propidium iodide flow cytometry, cell necroptosis; type: cell-based, Human; conditions: 24 hours, 5 μM sorafenib, 10 μM GW5074, or both
Protocol: (§1) Cells were cultured as described in example 1, washed with phosphate buffered saline (PBS), and stained with annexin V-FITC and propidium iodide (PI) for 15 minutes. The presence of fluorescent Annexin V as well as propidium iodide (PI) was detected by flow cytometry so as to determine whether the cell death is caused by apoptosis or necrosis. The expression of c-Raf and DAPK as well as the phosphorylation status of DAPK were examined by Western blot and immunoprecipitation using antibodies. Anti-DAPK antibodies or non-immune rabbit IgG (IP: immunoglobulin) were included as negative controls, and cell survival was measured by SRB assay, as shown in example 1.

ACHN cells [3] = experiment: ACHN xenograft in immunodeficient mice, tumor volume; type: in vivo; conditions: printed as 5 μM sorafenib, 10 μM GW5074, separate or combined; once a day for three weeks; n=8
Protocol: Six-week old immnunodeficient male mice (BALB/cAnN.Cg-Foxn1^nu/CrlNarl) with an average weight of 20 grams were xenografted with 1×10^7 ACHN cells to the right by […]. The mice were maintained in a specific pathogen-free (SPF) environment. The size of tumor was measured using a digital caliper twice a week and tumor volume was calculated by the equation of length*width*height*0.5. […] A total of four groups were included in the experiment: a control group which received only vehicle (DMSO), […], 25 mg/kg GW5074, […], respectively, with 8 mice in each group.

pDAPK^S308 = type: cell-based, Human; conditions: ACHN cells; PP2A inhibitor, various concentrations, provided 30 minutes prior to the combination drugs
Protocol: as §1, with “1. In this experiment, ACHN cells were treated separately with DMSO (as a control group), 5 μM sorafenib, 10 μM GW5074, or combination therapy of 5 μM sorafenib and 10 μM GW5074 for 24 hours.” for “1.”

[4] = 10 mg/kg sorafenib, 25 mg/kg GW5074, or both

Protocol for Luc-ACHN-LL cells: Immunodeficient male mice was injected with 3×10^5 Luc-ACHN-LL cells in 50 μL PBS at the right renal capsule. In vivo luciferase activity was examined every day for up to three weeks so as to assure no leakage of cancer cells at the kidneys immediately after injection and to monitor metastasis of these cancer cells. Two to five minutes before utilizing the IVIS Xenogene system, 75 mg/kg D-Luciferin (Xenogen) in PBS was injected to the retro-orbital sinus of each mouse. Two weeks after injection of Luc-ACHN-LL cells, IVIS Xenogene system was used to monitor transfer of biological fluorescent images and to calculate the intensities of the photon signals (photons/s/cm^2/steradian). A total of five groups were included in the study: a control group which received only vehicle, and four test groups which respectively received 10 mg/kg sorafenib, 25 mg/kg GW5074, a combination therapy of 10 mg/kg sorafenib and 25 mg/kg GW5074 (the animals were fed with Sor 30 min post i.p. injection of GW), or 60 mg/kg sorafenib.

Row | SMILES | growth inhibition of cells (ACHN cells [1]) | death within weeks following injection of cancer cells (survival) (Luc-ACHN-LL cells; [4]) | average cell necroptosis rate (ACHN cells [2]) | xenografted tumor volume, inhibition effect (ACHN cells [3]) | inhibition of dephosphorylation of pDAPK^S308 under combination therapy (pDAPK^S308) | death within weeks following injection of cancer cells (survival) (Luc-ACHN-LL cells; high-dose 60 mg/kg sorafenib) | body weight (Luc-ACHN-LL cells; mouse, in vivo, 60 mg/kg)
1 | O=C1Nc2ccc(I)cc2/C1=C/c1cc(Br)c(O)c(Br)c1 [GW5074, 3-(3,5-Dibromo-4-hydroxy-benzylidene)-5-iodo-1,3-dihydro-indol-2-one] | no growth inhibition | ≤ 5 weeks | 1.35% | nearly no inhibition effect | – | – | –
2 | C=C1[C@@H](O)[C@@H]2O[C@]3(CC[C@H](/C=C/[C@@H](C)[C@@H]4CC(C)=C[C@@]5(O[C@H](C[C@@](C)(O)C(=O)O)CC[C@H]5O)O4)O3)CC[C@H]2O[C@@H]1[C@@H](O)C[C@H](C)[C@H]1O[C@@]2(CCCCO2)CC[C@H]1C [Okadaic acid] | – | – | – | – | effective in inhibition of dephosphorylation of pDAPK^S308 | – | –
3 | CNC(=O)c1cc(Oc2ccc(NC(=O)Nc3ccc(Cl)c(C(F)(F)F)c3)cc2)ccn1 [sorafenib] | no growth inhibition | ≤ 8 weeks | 0.77% | nearly no inhibition effect | – | ≤ 10 weeks | loss of weight
